Laboratory results reported in patent US12187723B2 (BRISTOL-MYERS SQUIBB COMPANY, priority 2019, dated 2025).

Columns and labels:
human TLR9 = target: T1, human TLR9 (Homo sapiens, UniProt Q9NR96); experiment: TLR9 inhibition reporter assay (HEK-Blue SEAP); format: cell-based; details: HEK-Blue cells overexpressing human TLR9, ODN2006 5 nM, 22 hour incubation
T1 construct: host or cells: HEK-Blue cells
T1 sequence (Q9NR96 26-1032): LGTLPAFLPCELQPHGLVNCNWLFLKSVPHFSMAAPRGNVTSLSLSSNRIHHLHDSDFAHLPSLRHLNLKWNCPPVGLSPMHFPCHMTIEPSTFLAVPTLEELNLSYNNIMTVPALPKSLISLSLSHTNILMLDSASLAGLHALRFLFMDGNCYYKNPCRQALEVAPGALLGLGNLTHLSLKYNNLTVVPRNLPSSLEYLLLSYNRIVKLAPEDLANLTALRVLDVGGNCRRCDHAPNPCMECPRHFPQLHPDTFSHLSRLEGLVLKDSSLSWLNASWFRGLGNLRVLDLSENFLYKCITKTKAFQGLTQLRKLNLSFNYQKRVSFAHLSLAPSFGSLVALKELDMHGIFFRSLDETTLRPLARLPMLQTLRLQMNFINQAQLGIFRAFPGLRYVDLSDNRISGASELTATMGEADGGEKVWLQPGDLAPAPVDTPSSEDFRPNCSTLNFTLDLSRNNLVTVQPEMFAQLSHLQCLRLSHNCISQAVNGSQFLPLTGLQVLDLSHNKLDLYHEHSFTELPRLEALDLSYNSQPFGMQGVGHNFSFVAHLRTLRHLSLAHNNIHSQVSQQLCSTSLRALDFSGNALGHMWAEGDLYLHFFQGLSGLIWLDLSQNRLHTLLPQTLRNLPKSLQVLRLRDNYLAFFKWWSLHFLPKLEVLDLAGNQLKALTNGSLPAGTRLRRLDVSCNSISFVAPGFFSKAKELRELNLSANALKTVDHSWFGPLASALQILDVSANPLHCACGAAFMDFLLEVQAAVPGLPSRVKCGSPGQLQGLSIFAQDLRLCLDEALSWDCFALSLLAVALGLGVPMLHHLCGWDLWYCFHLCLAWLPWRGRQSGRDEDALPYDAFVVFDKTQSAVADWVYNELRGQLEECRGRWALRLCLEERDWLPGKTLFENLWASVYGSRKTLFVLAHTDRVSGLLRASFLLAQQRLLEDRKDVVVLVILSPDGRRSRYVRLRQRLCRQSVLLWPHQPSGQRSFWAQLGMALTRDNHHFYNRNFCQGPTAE
Method in brief: (§1)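 Human TLR7/8/9 HEK-Blue reporter lines; dose range 0.05 nM–50 μM; 30 min RT preincubation; stimulus gardiquimod 7.5 μM / R848 15.9 μM / ODN2006 5 nM respectively; 22 h, 37 °C; SEAP detected colorimetrically.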

human TLR8 = target: T2, human TLR8 (Homo sapiens, UniProt Q9NR97); experiment: TLR8 inhibition reporter assay (HEK-Blue SEAP); format: cell-based; details: HEK-Blue cells overexpressing human TLR8, R848 15.9 μM, 22 hour incubation
T2 construct: host or cells: HEK-Blue cells
T2 sequence (Q9NR97 27-1041): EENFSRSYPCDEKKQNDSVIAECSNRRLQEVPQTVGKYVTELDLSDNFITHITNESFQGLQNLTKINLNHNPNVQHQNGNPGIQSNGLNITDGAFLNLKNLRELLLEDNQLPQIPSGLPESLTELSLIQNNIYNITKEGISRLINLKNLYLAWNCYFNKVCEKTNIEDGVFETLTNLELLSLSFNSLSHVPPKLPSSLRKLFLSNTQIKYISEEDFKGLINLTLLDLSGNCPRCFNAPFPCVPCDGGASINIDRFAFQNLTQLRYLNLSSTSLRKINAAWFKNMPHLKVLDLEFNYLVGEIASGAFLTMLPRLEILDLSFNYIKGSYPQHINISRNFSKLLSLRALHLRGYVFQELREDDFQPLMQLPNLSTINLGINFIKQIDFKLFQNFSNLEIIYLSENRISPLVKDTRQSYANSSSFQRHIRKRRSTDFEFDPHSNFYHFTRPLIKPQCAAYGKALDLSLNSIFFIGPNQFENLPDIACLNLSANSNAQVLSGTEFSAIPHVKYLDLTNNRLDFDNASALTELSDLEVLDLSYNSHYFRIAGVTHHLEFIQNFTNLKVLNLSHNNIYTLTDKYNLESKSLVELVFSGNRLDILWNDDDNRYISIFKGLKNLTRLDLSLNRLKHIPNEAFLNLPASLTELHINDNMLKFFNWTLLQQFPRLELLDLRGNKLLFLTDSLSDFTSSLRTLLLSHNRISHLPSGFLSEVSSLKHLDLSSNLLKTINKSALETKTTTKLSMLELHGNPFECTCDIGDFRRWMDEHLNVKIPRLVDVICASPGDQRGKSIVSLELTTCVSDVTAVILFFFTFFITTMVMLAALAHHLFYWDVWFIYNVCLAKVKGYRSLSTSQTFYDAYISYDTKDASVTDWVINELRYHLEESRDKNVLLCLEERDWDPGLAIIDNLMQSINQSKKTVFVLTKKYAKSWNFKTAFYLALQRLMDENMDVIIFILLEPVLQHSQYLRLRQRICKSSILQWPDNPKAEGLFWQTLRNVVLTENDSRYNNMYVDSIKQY
Method in brief: as §1

| SMILES | IC50 (human TLR9) | IC50 (human TLR8) |
| --- | --- | --- |
| COc1cc(-c2cc3[nH]c(=O)n(C4CCC(N5CCC6(CC5)COC6)CC4)c3cc2C(C)C)cn2ncnc12 (stereo not shown) [Example 239, 1-(4-(2-oxa-7-azaspiro[3.5]nonan-7-yl)cyclohexyl)-6-isopropyl-5-(8-methoxy-[1,2,4]triazolo[1,5-a]pyridin-6-yl)-1,3-dihydro-2H-benzo[d]imidazol-2-one] | 13 µM | 0.21 nM |
| COc1cc(-c2cc3[nH]c(=O)n([C@H]4CC[C@H](NCC(C)C)CC4)c3cc2C(C)C)cn2ncnc12 [Example 204, 1-((1r,4s)-4-(isobutylamino)cyclohexyl)-6-isopropyl-5-(8-methoxy-[1,2,4]triazolo[1,5-a]pyridin-6-yl)-1,3-dihydro-2H-benzo[d]imidazol-2-one] | 11.7 µM | 1.23 nM |
| COc1cc(-c2cc3[nH]c(=O)n([C@H]4CC[C@@H](N(C)C)CC4)c3cc2C(C)C)cn2ncnc12 [Example 191, 1-((1s,4s)-4-(dimethylamino)cyclohexyl)-6-isopropyl-5-(8-methoxy-[1,2,4]triazolo[1,5-a]pyridin-6-yl)-1,3-dihydro-2H-benzo[d]imidazol-2-one] | 11.7 µM | 0.58 nM |
| CCN[C@H]1CC[C@@H](n2c(=O)[nH]c3cc(-c4cn5ncnc5c(C)c4C)c(C(C)C)cc32)CC1 [Example 189, 5-(7,8-dimethyl-[1,2,4]triazolo[1,5-a]pyridin-6-yl)-1-((1s,4s)-4-(ethylamino)cyclohexyl)-6-isopropyl-1,3-dihydro-2H-benzo[d]imidazol-2-one] | > 50 µM | 3.11 nM |
| CCCN(CCC)[C@H]1CC[C@@H](n2c(=O)[nH]c3cc(-c4cn5ncnc5c(C)c4C)c(C(C)C)cc32)CC1 [Example 199, 5-(7,8-dimethyl-[1,2,4]triazolo[1,5-a]pyridin-6-yl)-1-((1s,4s)-4-(dipropylamino)cyclohexyl)-6-isopropyl-1,3-dihydro-2H-benzo[d]imidazol-2-one] | 3.37 µM | 0.53 nM |
| COc1cc(-c2cc3[nH]c(=O)n(C4CCC(N5CC6(CCOCC6)C5)CC4)c3cc2C(C)C)cn2ncnc12 (single isomer, unassigned) [Example 235, 1-(4-(7-oxa-2-azaspiro[3.5]nonan-2-yl)cyclohexyl)-6-isopropyl-5-(8-methoxy-[1,2,4]triazolo[1,5-a]pyridin-6-yl)-1,3-dihydro-2H-benzo[d]imidazol-2-one] | 11.2 µM | 0.39 nM |
| COc1cc(-c2cc3[nH]c(=O)n(C4CCC(N5CC(O)(C(F)(F)F)C5)CC4)c3cc2C(C)C)cn2ncnc12 (single isomer, unassigned) [Example 241, 1-(4-(3-hydroxy-3-(trifluoromethyl)azetidin-1-yl)cyclohexyl)-6-isopropyl-5-(8-methoxy-[1,2,4]triazolo[1,5-a]pyridin-6-yl)-1,3-dihydro-2H-benzo[d]imidazol-2-one] | > 50 µM | 0.49 nM |
| CCC(CC)CN[C@H]1CC[C@@H](n2c(=O)[nH]c3cc(-c4cc(OC)c5ncnn5c4)c(C(C)C)cc32)CC1 [Example 194] | 2.08 µM | 0.11 nM |

Continued, values first:

| IC50 (human TLR9) | IC50 (human TLR8) | SMILES |
| --- | --- | --- |
| 20.6 µM | 5.67 nM | COCCN1CCC[C@H](n2c(=O)[nH]c3cc(-c4cc(OC)c5ncnn5c4)c(C(C)C)cc32)C1 [Example 221, (S)-6-isopropyl-5-(8-methoxy-[1,2,4]triazolo[1,5-a]pyridin-6-yl)-1-(1-(2-methoxyethyl)piperidin-3-yl)-1,3-dihydro-2H-benzo[d]imidazol-2-one] |
| 3.32 µM | 3.77 nM | CCc1cc2c(cc1-c1cc(OC)c3ncnn3c1)[nH]c(=O)n2[C@@H]1CCCN(CCC(C)(C)C)C1 [Example 208, (R)-1-(1-(3,3-dimethylbutyl)piperidin-3-yl)-6-ethyl-5-(8-methoxy-[1,2,4]triazolo[1,5-a]pyridin-6-yl)-1,3-dihydro-2H-benzo[d]imidazol-2-one] |
| 2.98 µM | 0.05 nM | COc1cc(-c2cc3[nH]c(=O)n([C@@H]4CCCN(CC5CCCC5)C4)c3cc2C(C)C)cn2ncnc12 [Example 211, (R)-1-(1-(cyclopentylmethyl)piperidin-3-yl)-6-isopropyl-5-(8-methoxy-[1,2,4]triazolo[1,5-a]pyridin-6-yl)-1,3-dihydro-2H-benzo[d]imidazol-2-one] |
| > 50 µM | 4.62 nM | CCc1cc2c(cc1-c1cc(OC)c3ncnn3c1)[nH]c(=O)n2[C@@H]1CCCN(C2CCOC2)C1 (stereo partly drawn) [Example 213, 6-ethyl-5-(8-methoxy-[1,2,4]triazolo[1,5-a]pyridin-6-yl)-1-((3R)-1-(tetrahydrofuran-3-yl)piperidin-3-yl)-1,3-dihydro-2H-benzo[d]imidazol-2-one] |
| 5.69 µM | 14.5 nM | Cc1cc2c(cc1-c1cc(C)c3ncnn3c1)[nH]c(=O)n2[C@@H]1CCCN(C(C)C)C1 [Example 17, (R)-1-(1-isopropylpiperidin-3-yl)-6-methyl-5-(8-methyl-[1,2,4]triazolo[1,5-a]pyridin-6-yl)-1,3-dihydro-2H-benzo[d]imidazol-2-one] |
| 7.64 µM | 92.5 nM | CCN1CCC[C@H](n2c(=O)[nH]c3cc(-c4cc(C)c5ncnn5c4)c(C)cc32)C1 [Example 12, (S)-1-(1-ethylpiperidin-3-yl)-6-methyl-5-(8-methyl-[1,2,4]triazolo[1,5-a]pyridin-6-yl)-1,3-dihydro-2H-benzo[d]imidazol-2-one] |
| 13.2 µM | 9.01 nM | COCCN1CCC(n2c(=O)[nH]c3cc(-c4cc(OC)c5ncnn5c4)c(C(C)C)cc32)CC1 [Example 223, 6-isopropyl-5-(8-methoxy-[1,2,4]triazolo[1,5-a]pyridin-6-yl)-1-(1-(2-methoxyethyl)piperidin-4-yl)-1,3-dihydro-2H-benzo[d]imidazol-2-one] |
| > 50 µM | 53.2 nM | COc1cc(-c2cc3[nH]c(=O)n([C@H]4CCCN(CCS(C)(=O)=O)C4)c3cc2C(C)C)cn2ncnc12 [Example 222, (S)-6-isopropyl-5-(8-methoxy-[1,2,4]triazolo[1,5-a]pyridin-6-yl)-1-(1-(2-(methylsulfonyl)ethyl)piperidin-3-yl)-1,3-dihydro-2H-benzo[d]imidazol-2-one] |
| 30.9 µM | 1.34 nM | COc1cc(-c2cc3[nH]c(=O)n([C@H]4CC[C@H](NC(C)C)CC4)c3cc2C(C)C)cn2ncnc12 [Example 203, 6-isopropyl-1-((1r,4s)-4-(isopropylamino)cyclohexyl)-5-(8-methoxy-[1,2,4]triazolo[1,5-a]pyridin-6-yl)-1,3-dihydro-2H-benzo[d]imidazol-2-one] |
